This is an account of results in patent publication US5183818A, “Arylalkylether and arylalkylthioether inhibitors of lipoxygenase enzyme activity” (Abbott Laboratories, priority 1991, dated 1993).

By IC50 is commonly meant the point on the concentration scale where inhibition reaches its midpoint.

Experiment [1] deals with T1, 5-Lipoxygenase from RBL-1 20,000 × g Supernatant (Rattus norvegicus, UniProt P12527).
T1 construct: 20,000 xg supernatant from 1.5 million homogenized RBL-1 cells; endogenous in cells; host or cells: RBL-1 cells, 20,000 xg supernatant of homogenate
T1 sequence (P12527 1-673): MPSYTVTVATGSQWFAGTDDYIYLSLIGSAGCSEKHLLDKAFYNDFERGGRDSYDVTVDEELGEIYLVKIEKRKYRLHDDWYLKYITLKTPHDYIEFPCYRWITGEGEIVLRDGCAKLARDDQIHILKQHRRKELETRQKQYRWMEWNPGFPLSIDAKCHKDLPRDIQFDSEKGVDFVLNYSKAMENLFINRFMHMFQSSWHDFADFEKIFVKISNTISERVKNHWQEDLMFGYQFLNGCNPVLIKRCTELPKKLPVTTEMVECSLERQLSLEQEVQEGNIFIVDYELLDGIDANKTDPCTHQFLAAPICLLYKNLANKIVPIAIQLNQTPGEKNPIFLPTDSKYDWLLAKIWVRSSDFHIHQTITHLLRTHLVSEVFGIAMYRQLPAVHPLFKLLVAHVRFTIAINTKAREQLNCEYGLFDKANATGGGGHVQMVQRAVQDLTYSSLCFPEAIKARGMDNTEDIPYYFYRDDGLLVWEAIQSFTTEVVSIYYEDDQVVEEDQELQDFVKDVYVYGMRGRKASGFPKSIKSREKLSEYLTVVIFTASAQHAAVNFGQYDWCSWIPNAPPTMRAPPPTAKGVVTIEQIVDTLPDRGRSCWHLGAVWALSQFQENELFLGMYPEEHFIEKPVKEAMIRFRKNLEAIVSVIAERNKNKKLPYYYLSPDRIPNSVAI
Briefly: 5-lipoxygenase inhibition in 20,000 xg supernatant of homogenized RBL-1 cells (radiolabeled arachidonic acid). The class given is biochemical. To be noted: in vitro, incubations in triplicate, read-out: IC50 × 10^6 Molar. How it is done:
Assays to determine 5-lipoxygenase inhibitory activity were performed in […] incubations containing the 20,000 xg supernatant from 1.5 million homogenized RBL-1 cells and various concentrations of the test compound. Reactions were initiated by addition of radiolabeled arachidonic acid and terminated by acidification and ether extraction. Reaction products were separated from nonconverted substrate by thin layer chromatography and measured by liquid scintillation spectroscopy. All incubations are performed in triplicate. Inhibition of 5-lipoxygenase activity was calculated as the ratio of the amount of product formed in the presence and absence of inhibitor. IC50 values (concentration of compound producing 50% enzyme inhibition) were calculated by linear regression analysis of percentage inhibition versus log inhibitor concentration plots. (Dyer, R. D.; Haviv, F.; Hanel, A. M.; Bornemier, D. A.; Carter, G. W. Fed. Proc., Fed. Am. Soc. Exp. Biol. 1984, 43, 1462A).

For a further experiment, the system named is Leukotriene Biosynthesis. Briefly: Inhibition of leukotriene biosynthesis in vivo, rat peritoneal anaphylaxis model. To be noted: 200 μmol/kg oral (gavage) one hour prior to antigen challenge, peritoneal fluids 15 minutes after challenge. As to the method: Inhibition of the biosynthesis of leukotrienes in vivo after oral administration of compound was determined using a rat peritoneal anaphylaxis model in a similar manner as that described by Young and coworkers (Young, P. R.; Dyer, R. D.; Carter, G. W. Carter, G. W. Fed. Proc., Fed. Am. Soc. Exp. Biol. 1985, 44, 1185). In this model rats were injected intraperitoneally (ip) with rabbit antibody to bovine serum albumin (BSA) and three hours later injected ip with BSA to induce an antigen antibody response. Rats were sacrificed 15 minutes after this challenge and the peritoneal fluids were collected and analyzed for leukotriene levels. Test compounds were administered by gavage one hour prior to the antigen challenge. Percent inhibition values were determined by comparing the treatment group to the mean of the control group, and the results are presented in Table 2 for representative compounds of the present invention.

`CC(CSCc1ccco1)N(O)C(N)=O` (stereo not shown) [Example 1]: in experiment [1], the 50% inhibitory concentration (IC50) came to 5.5 µM. Further, the “Percent Inhibition of Leukotrienes at 200 μmol/kg (Oral Dose)” value (“Percent Inhibition of Leukotrienes” for short) in the experiment with Leukotriene Biosynthesis came to 71%.

As to `CC(CSc1ccccn1)N(O)C(N)=O` (stereo not shown) [Example 2, N-hydroxy-N-[2-(1-(2-pyridyl)thio)propyl] urea], in experiment [1], the IC50 was found to be 9.7 µM.

Regarding `CC(COCc1ccco1)N(O)C(N)=O` (stereo not shown) [Example 3], the half-inhibitory concentration (IC50) in experiment [1] is 12 µM. In addition, the “Percent Inhibition of Leukotrienes” value in the experiment with Leukotriene Biosynthesis worked out at 77%.

`Cc1ccc(C(C)OCCN(O)C(N)=O)o1` (stereo not shown) [Example 4, N-Hydroxy-N-[2-(1-[1-(5-methylfur-2-yl)]ethoxy)ethyl] urea]: the IC50 in experiment [1] was 6.3 µM.

As to `Cc1ccc(COCC(C)N(O)C(N)=O)o1` (stereo not shown) [Example 5], the half-inhibitory concentration (IC50) in experiment [1] was found to be 4.6 µM.

On to `Cc1ccc(COCCN(O)C(N)=O)o1` [Example 6, N-Hydroxy-N-[2-(5-methylfur-2-ylmethoxy)ethyl] urea], for which the IC50 in experiment [1] worked out at 7.3 µM.

Turning to `Cc1ccc(C(C)OCC(C)N(O)C(N)=O)o1` (stereo not shown) [Example 7, N-Hydroxy-N-[2-(1-[1-(5-methylfur-2-yl)]ethoxy)propyl] urea], the IC50 in experiment [1] was found to be 6.6 µM.

Regarding `Cc1cc(COCC(C)N(O)C(N)=O)c(C)o1` (stereo not shown) [Example 8], the IC50 in experiment [1] was found to be 5.7 µM.

Take `Cc1cc(COCCN(O)C(N)=O)c(C)o1` [Example 9, N-Hydroxy-N-[2-(1-(2,5-dimethylfur-3yl)methoxy)ethyl] urea]: the IC50 in experiment [1] came to 6.9 µM.

As to `Cc1occc1COCC(C)N(O)C(N)=O` (stereo not shown) [Example 10], the IC50 in experiment [1] was 6 µM. Besides, the “Percent Inhibition of Leukotrienes” value in the experiment with Leukotriene Biosynthesis worked out at 75%.

Consider `CC(COCc1ccoc1)N(O)C(N)=O` (stereo not shown) [Example 11], for which the IC50 in experiment [1] is 9.3 µM. In addition, the “Percent Inhibition of Leukotrienes” value in the experiment with Leukotriene Biosynthesis is on record as 78%.

Consider `CC(OCC(C)N(O)C(N)=O)c1ccco1` (stereo not shown) [Example 12, N-Hydroxy-N-[2-(1-[1-(fur-2-yl)ethoxy)]propyl] urea], for which the IC50 in experiment [1] was 7.3 µM.

With `Cc1ccc(COCC(C)N(O)C(N)=O)s1` (stereo not shown) [Example 13], the IC50 in experiment [1] came to 1.9 µM.

As for `Cc1ccc(COCCN(O)C(N)=O)s1` [Example 14, N-Hydroxy-N-[2-(1-(5-methylthien-2-yl)methoxy)ethyl] urea], the IC50 in experiment [1] amounted to 3 µM. Besides, the “Percent Inhibition of Leukotrienes” value with Leukotriene Biosynthesis turned out to be 92%.

`CC(OCCN(O)C(N)=O)c1cc2ccccc2s1` (stereo not shown) [Example 15, N-Hydroxy-N-[2-(1-[1-(benzo[b]thien-2-yl)]ethoxy)ethyl) urea]: in experiment [1], the half-maximal inhibitory concentration (IC50) turned out to be 0.2 µM.

Regarding `NC(=O)N(O)CCOCc1cc2ccccc2s1` [Example 16, N-Hydroxy-N-[2-(1-(benzo[b]thien-2-yl)methoxy)ethyl] urea], the IC50 in experiment [1] was 0.67 µM.

For the molecule `CC(COCc1cc2ccccc2s1)N(O)C(N)=O` (stereo not shown) [Example 17], the IC50 in experiment [1] came to 0.46 µM. In addition, the “Percent Inhibition of Leukotrienes” value in the experiment on Leukotriene Biosynthesis was determined as 89%.

`CNC(=O)N(O)C(C)CSCc1ccc(CN(C)C)o1` (stereo not shown) [Example 18, N-Hydroxy-N-[2-(1-(5-N,N-dimethylaminomethyl)fur-2-ylmethylthio)-propyl]-N'-methyl urea]: the IC50 in experiment [1] stood at 27.6 µM.

Turning to `NC(=O)N(O)CCOCc1cccs1` [Example 19, N-Hydroxy-N-[2-(thien-2-ylmethoxy)ethyl] urea], the IC50 in experiment [1] is 4.1 µM. In addition, the “Percent Inhibition of Leukotrienes” value in the experiment on Leukotriene Biosynthesis is recorded as 100%.

Consider `CC(COCc1cccs1)N(O)C(N)=O` (stereo not shown) [Example 20], for which the IC50 in experiment [1] was 4.5 µM.

Turning to `CC(COCc1ccsc1)N(O)C(N)=O` (stereo not shown) [Example 21], in experiment [1], the IC50 was 8.4 µM.
